ChEMBL document CHEMBL1667861, “Kinetic and docking studies of phenol-based inhibitors of carbonic anhydrase isoforms I, II, IX and XII evidence a new binding mode within the enzyme active site” (Bioorg Med Chem, 2011)

Experiments:
[1] = target: Carbonic anhydrase 2 (Homo sapiens, UniProt P00918); assay: Inhibition of human carbonic anhydrase 2 preincubated for 15 mins by CO2 hydration stopped-flow assay
[2] = target: Carbonic anhydrase 1 (Homo sapiens, UniProt P00915); assay: Inhibition of human carbonic anhydrase 1 preincubated for 15 mins by CO2 hydration stopped-flow assay
Sequence of Carbonic anhydrase 1 (P00915 whole entry): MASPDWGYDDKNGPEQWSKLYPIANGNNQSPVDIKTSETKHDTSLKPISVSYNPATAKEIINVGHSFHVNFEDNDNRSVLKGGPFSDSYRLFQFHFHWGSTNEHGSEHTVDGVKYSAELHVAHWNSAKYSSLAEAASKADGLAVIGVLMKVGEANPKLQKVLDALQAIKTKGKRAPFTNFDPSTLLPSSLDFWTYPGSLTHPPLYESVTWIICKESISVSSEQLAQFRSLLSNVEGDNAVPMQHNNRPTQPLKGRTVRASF

[3] = target: Carbonic anhydrase 9 (Homo sapiens, UniProt Q16790); assay: Inhibition of human carbonic anhydrase 9 preincubated for 15 mins by CO2 hydration stopped-flow assay
[4] = target: Carbonic anhydrase 12 (Homo sapiens, UniProt O43570)
Sequence of Carbonic anhydrase 12 (O43570 whole entry): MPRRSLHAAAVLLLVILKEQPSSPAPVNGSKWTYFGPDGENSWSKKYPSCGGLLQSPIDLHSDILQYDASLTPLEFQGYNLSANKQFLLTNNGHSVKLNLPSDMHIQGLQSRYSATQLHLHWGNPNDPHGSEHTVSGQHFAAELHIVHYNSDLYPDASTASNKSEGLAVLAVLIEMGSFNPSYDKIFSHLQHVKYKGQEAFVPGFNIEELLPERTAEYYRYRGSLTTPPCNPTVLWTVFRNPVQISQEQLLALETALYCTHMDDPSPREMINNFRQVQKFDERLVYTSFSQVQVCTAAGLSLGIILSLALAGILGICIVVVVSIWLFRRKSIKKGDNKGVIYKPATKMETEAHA

| Ki [1] | Ki [2] | Ki [3] | Ki [4] | SMILES |
| --- | --- | --- | --- | --- |
| 3.35 µM |  |  |  | COc1ccc(OC)cc1 [1,4-DIMETHOXYBENZENE] |
| 0.6 µM | 2.37 µM | 4.53 µM | 3.53 µM | O=C(O)c1cccc(O)c1 [3-HYDROXYBENZOIC ACID] |
|  |  | 4.06 µM |  | COc1ccc(OC)c(OC)c1 [1,2,4-TRIMETHOXYBENZENE] |
|  | 1.08 µM | 4.45 µM | 4.09 µM | O=C(O)c1ccc(O)c(O)c1 [PROTOCATECHUIC ACID] |
|  | 0.55 µM | 4.41 µM | 3.67 µM | O=C(O)c1cc(O)cc(O)c1 [3,5-DIHYDROXYBENZOIC ACID] |

| SMILES | Ki [1] | Ki [2] | Ki [3] | Ki [4] |
| --- | --- | --- | --- | --- |
| COc1ccc(C(=O)O)cc1OC [VERATRIC ACID] | 6.18 µM | 6.83 µM | 8.25 µM | 6.7 µM |
